The values below come from patent US12036190B2, “Methods and compositions for the treatment of cytoplasmic glycogen storage disorders” (Duke University, priority 2015, dated 2024).

The subject of data set [1] is G6pc siRNA knockdown AML-12 cells. Particulars: Oil Red O, duplicate. From the text:
In brief, a wide array of drugs was selected, including those that modulate autophagy via the […] pathway, those that do so through AMPK modulation to act through mTORC1, and those using yet-undetermined pathways. Analysis of additional literature led to the selection of three concentrations of each compound to be tested in cell culture using the G6pc siRNA knockdown AML-12 mouse hepatocyte cell line model of GSD Ia as an initial screen for the drugs.
Drug concentrations were chosen based on similarity to published concentrations in either cell culture models resulting in target effects or autophagy, or in vivo extracellular fluid concentrations following animal treatments. The latter case is noted with the fluid type. Concentrations used in our in vitro AML-12 cell culture treatments are listed as the low, medium, and high concentrations that were screened.
The first test using AML-12 cells was the Oil Red 0 stain to examine the presence of lipid vacuoles in cells given the treatments.
G6pc siRNA knockdown AML-12 cells were given three different doses of each drug treatment. After 72 hours of growth, the media was changed to ketogenic media and appropriate quantities of each drug were added. This was performed in duplicate. Oil Red 0 staining was then performed and bright field images acquired at 10× magnification.
Drug treatments at three doses each were performed on G6pc siRNA knockdown AML-12 cells. Following oil red 0 staining the whole plates were evaluated visually for reductions in lipid accumulation. Treatments were performed in duplicate. —/0/+/++/+++ indicates the degree of improvement, or lipid reduction, caused by the treatment, with + indicating positive benefits.

The test system of data set [2] is G6pc knockdown AML-12 cells. The data set can be described thus: LC3 Western blot of drug-treated G6pc knockdown AML-12 cells. In kind it is cell-based, mouse. The settings on record: 24 hours; conditions with optimal effects in the Oil Red O screen. The protocol:
FIG. 27 illustrates LC3 Western blot of drug-treated G6pc knockdown AML-12 cells. Western blotting was performed on AML-12 cells incubated for 24 hours with the described drug conditions. LC3 was quantified and normalized against each condition's β-actin protein quantification.
In addition to Oil Red O staining, cells were analyzed via Western blots for restored LC3 expression for each drug, under the conditions that had optimal effects in the Oil Red O screen (FIG. 27). Since the Western antibody previously used successfully for rapamycin treatment LC3 blots had been discontinued by the manufacturer, we tested two alternative antibodies and chose the one from Cell Signaling Technologies because it gave the strongest signal-to-noise ratio under our experimental conditions.
Western blotting was performed on AML-12 cells incubated for 24 hours with the described drug conditions. LC3 was quantified and normalized against each condition's β-actin protein quantification.

The next data set deals with autophagy. The settings on record: Table 4; drugs known to enhance autophagy; cited from earlier work.
The conditions of data set [3]: in vivo extracellular fluid concentration; cited from earlier work.

`NC(=O)N1c2ccccc2C=Cc2ccccc21` [Carbamazepine]: the “Lipid Reduction Scoring, High dose” value in data set [1] (high concentration of Table 6) is on record as 0. Besides, the “Lipid Reduction Scoring, Low dose” value in data set [1] (low concentration of Table 6) is “+++”. The “Lipid Reduction Scoring, Medium dose” value in data set [1] (medium concentration of Table 6) is “+”. In addition, the “LC3 normalized against β-actin (Western blot)” value in data set [2] is “increase in LC3 autophagic marker”. Moreover, the Effect result in the data set on autophagy is reported as “Activated autophagy, reduced hepatosteatosis”. In data set [3], the “Published Concentration, cerebrospinal fluid” value is 0.7 to 1.5 µg/mL.
